In patent US12209080B2, “Polymorphic forms of kinase inhibitor compound, pharmaceutical composition containing same, preparation method therefor and use thereof” (EQUINOX SCIENCES, LLC, priority 2016, dated 2025):

Tests used:
[1] = Moisture-induced crystallization experiment (XRD); type: physicochemical; conditions: room temperature, 58-97% RH, up to 10 days
Experimental: About 10 mg of the crystalline form 1 was taken and placed in the corresponding environment, and the solid was detection by XRD at different time.

[2] = Stability of crystalline form 1 in aqueous methanol (XRPD detection); type: physicochemical
Excerpt: The stability of the crystalline form 1 in aqueous methanol solution at different temperature and for different time is as follows.

stability under humidity conditions (overall) [1]: stable
XRPD detection ([2]; 2.0 g in 50 mL methanol, moisture (KF) 0.1%, 20-30° C., 2 hrs): form 1
XRPD detection ([2]; 2.0 g in 50 mL methanol, moisture (KF) 0.1%, 20-30° C., 4 hrs): form 1
XRPD detection ([2]; 2.0 g in 50 mL methanol, moisture (KF) 0.1%, 20-30° C., 8 hrs): form 1
XRPD detection ([2]; 2.0 g in 50 mL methanol, moisture (KF) 0.1%, 20-30° C., 21 hrs): form 1
XRPD detection ([2]; 2.0 g in 50 mL methanol, moisture (KF) 5.2%, 20-30° C., 2 hrs): form 1
XRPD detection ([2]; 2.0 g in 50 mL methanol, moisture (KF) 5.2%, 20-30° C., 4 hrs): form 1
XRPD detection ([2]; 2.0 g in 50 mL methanol, moisture (KF) 5.2%, 20-30° C., 8 hrs): form 1
XRPD detection ([2]; 2.0 g in 50 mL methanol, moisture (KF) 5.2%, 20-30° C., 21 hrs): form 1
XRPD detection ([2]; 2.0 g in 50 mL methanol, moisture (KF) 10%, 20-30° C., 2 hrs): form 1
XRPD detection ([2]; 2.0 g in 50 mL methanol, moisture (KF) 10%, 20-30° C., 4 hrs): form 1
XRPD detection ([2]; 2.0 g in 50 mL methanol, moisture (KF) 10%, 20-30° C., 8 hrs): form 1
XRPD detection ([2]; 2.0 g in 50 mL methanol, moisture (KF) 10%, 20-30° C., 21 hrs): form 1
XRPD detection ([2]; 5.0 g in 50 mL methanol, moisture (KF) 0.1%, reflux, 2 hrs): form 1
XRPD detection ([2]; 5.0 g in 50 mL methanol, moisture (KF) 0.1%, reflux, 4 hrs): form 1
XRPD detection ([2]; 5.0 g in 50 mL methanol, moisture (KF) 0.1%, reflux, 8 hrs): form 2
XRPD detection ([2]; 5.0 g in 50 mL methanol, moisture (KF) 0.1%, reflux, 21 hrs): form 2
XRPD detection ([2]; 5.0 g in 50 mL methanol, moisture (KF) 5.2%, reflux, 2 hrs): form 1
XRPD detection ([2]; 5.0 g in 50 mL methanol, moisture (KF) 5.2%, reflux, 4 hrs): form 1 + form 2
XRPD detection ([2]; 5.0 g in 50 mL methanol, moisture (KF) 5.2%, reflux, 8 hrs): form 2
XRPD detection ([2]; 5.0 g in 50 mL methanol, moisture (KF) 5.2%, reflux, 21 hrs): form 2
XRPD detection ([2]; 5.0 g in 50 mL methanol, moisture (KF) 10%, reflux, 2 hrs): form 1
XRPD detection ([2]; 5.0 g in 50 mL methanol, moisture (KF) 10%, reflux, 4 hrs): form 2
XRPD detection ([2]; 5.0 g in 50 mL methanol, moisture (KF) 10%, reflux, 8 hrs): form 2
XRPD detection ([2]; 5.0 g in 50 mL methanol, moisture (KF) 10%, reflux, 21 hrs): form 2
SMILES: Cc1[nH]c(/C=C2\C(=O)Nc3ccc(F)cc32)c(C)c1C(=O)N[C@H]1CCN(C(=O)N(C)C)C1 [crystalline form 1, 5-[5-fluoro-2-oxo-1,2-dihydro-indole-(3Z)-ylidenemethyl]-2,4-dimethyl-1H-pyrrole-3-carboxylic acid ((S)-1-dimethylcarbamoyl-pyrrolidin-3-yl)-amide]
